The text below walks through data of US20160022625A1, “TASHINONES AND THEIR DERIVATIVES: NOVEL EXCELLENT DRUGS FOR ALZHEIMER DISEASE” (priority 2013, published 2016).

Read-outs that look alike come from different tables or passages of the source.

Data set [1] concerns SH-SY5Y cells. The data set can be described thus: Live/dead cell assay, protection from Aβ-induced toxicity. In kind it is cell-based, Human. The conditions noted are these: for protect cultured-cells from Aβ-induced toxicity by: co-incubation of Aβ with a very small amount of TSs; for percentage of dead cells (normalized to Aβ alone = 100%): tanshinone 4 μM + Aβ 20 μM (1:0.2), 24 hour, SH-SY5Y. The text has this:
(§1) In order to determine whether tanshinone compounds are able to protect neuronal cells from toxic Aβ species, we conducted cell viability experiments to compare the toxic effects of Aβ, TS1, TS2, Aβ-TS1, and Aβ-TS2 on the SH-SY5Y cells using the SH-SY5Y live/dead assay, which is widely used in studies of Aβ toxicity. Opti-MEM reduced serum medium was used to minimize the noise of fluorescence. We then set the cell death data obtained from Aβ-cell control experiment as a basis of 100% to normalize other data for comparison. […] When treated the cells with 8 μM TS1 or TS2 alone (Aβ:TS=1:0.4), cell death was 25.3% and 20.5% (FIG. 5), respectively. Considering the physiological concentration of Aβ is as low as 10^-9 M, 8 μM tanshinone may exceed a lethal dose to induce cell death. We thus reduced the concentation of TS1 or TS2 to a clinical trial level of 4 μM for cell viability tests. […] We then performed Aβ-tanshione cell toxicity experiments using a 1:0.2 mixture of tanshinones (4 μM) and Aβ (20 μM). […] TS1 appears to be less toxic than TS2 by 13.8%.
(§2) All chemicals for cell culture were purchased from Life Technologies unless otherwise stated. Human neuroblastoma SH-SY5Y cell (ATCC, Manassas, Va., USA) was used as model neuron and cultured in 75 cm^2 T-flasks (Corning) in sterile-filtered Eagles Minimum Essential Medium and Ham's F-12 medium mixed at a 1:1 ratio containing 10% fetal bovine serum (EMEM, ATCC, Manassas, Va., USA), and 1% penicillin/streptomycin in 37° C., humidified air with 5% CO2. Cells were cultured to confluence, and harvested using 0.25 mg/ml Trypsin/EDTA solution (Lonza). Before adding Aβ and tanshinone, cells were re-suspended in Opti-MEM reduced serum medium and counted using a hemacytometer. Cells were then plated in a 24-well tissue culture plate with approximately 150,000 cells per well in 500 μl of Opti-MEM reduced serum medium, and allowed to attach for 24 hours inside the incubator.
Aβ oligomers were prepared by incubating a 1 mM Aβ-PBS solution at 37° C. for 24 h. Aβ oligomers with a molar ratio of Aβ:tanshinone of 1:0.2 were added to each well to reach a final concentration of 20 μM. The cells were then left for 24 hours before cell toxicity tests. A live/dead cytotoxicity assay, which determines live and dead cells with two probes by measuring intracellular esterase activity and plasma membrane integrity, was used to obtain cell viability/toxicity data. Cells were stained by adding 2 μM of Calcein AM (Life Technologies) to distinguish the presence of live cells with a fluorescence excitation/emission of 494/517 nm, while by adding 5 μM of Ethidium homodimer-1 (Life Technologies) to distinguish the presence of dead cells with a fluorescence excitation/emission of 528/617 nm. […] A Zeiss Axiovert 40 CFL inverted microscope fitted with filters at 510 nm and 600 nm was used to obtain fluorescence images of the live and dead cells. Fluorescence readings at 494/517 nm and 528/617 nm were detected using a Synergry H1 microplate reader (BioTek, Winooski, Vt.). […] Fi corresponds to the dead/live fluorescence signal of cells (blank control), cells co-incubate with TS1, cells co-incubate with TS2, cells co-incubate with Aβ and TS1, cells co-incubate with Aβ and TS2, and cells co-incubate with Aβ, respectively. FAβ represents the dead/live fluorescence signal of cells co-incubate with Aβ. The fluorescence signals of blank dyes were calibrated first and then subtracted from the fluorescence signals of medium solution.

Data set [2] addresses T1, Aβ1-42 (Homo sapiens, UniProt P05067).
T1 construct: Aβ1-42 peptide (≧95.5%) was all purchased from American Peptide Inc; purchased American Peptide Inc. (Sunnyvale, Calif.)
The data set can be described thus: ThT fluorescence assay of Aβ1-42 amyloid formation (inhibition assay). It counts as biochemical. The conditions noted are these: 20 μM Aβ1-42, 37° C.; for final ThT fluorescence intensity reduced by: Aβ:TS=1:2, 24 hour. Here is the method: (§3) To examine the inhibitory effect of TS1 and TS2 on Aβ aggregation, the kinetics and morphological changes of Aβ1-42 amyloid formation in the presence of different molar ratios (Aβ:TS) of two tanshinone compounds were monitored by ThT fluorescence assay and AFM (Atomic force microscopy). 20 μM Aβ1-42 solution (with or without tanshinone) was incubated at 37° C. for 48 h. ThT fluorescence assay has been widely used to detect the formation of amyloid fibrils because the binding of thioflavin dyes to amyloid fibrils enables to reduce self-quenching by restricting the rotation of the benzothiozole and benzaminic rings, leading to a significant increase in fluorescence quantum yield. […] After 24 hour reaction, a strong ThT emission was observed and remained almost unchanged within statistic errors between 24 and 48 hour incubation.
A homogeneous solution of Aβ monomers was required for inhibition tests. The purified Aβ1-42 powder was aliquoted in DMSO for 1 min and sonicated for 30 sec. The initiation of 20 μM Aβ1-42 [containing 1% (v/v) DMSO] aggregation in solution was accomplished by adding an aliquot of the concentrated DMSO-Aβ1-42 solution to 10 mM PBS buffer, followed by immediate vortexing to mix thoroughly. Aβ1-42 solution was then centrifuged with 14,000 rpm for 30 min at 4° C. to remove any existing oligomers, which 75% of the top solution was removed for further incubation or inhibition experiments. The pure Aβ1-42 solution was incubated at 37° C. as control. For Aβ inhibition experiments, 40 mM tanshinone (in DMSO) stock solution was dissolved in freshly prepared Aβ1-42 monomer solution to a final concentration of 20 μM and 40 μM (with Aβ:tanshinone molar ratio of 1:1 and 1:2), respectively. The mixed Aβ-tanshinone samples were incubated at 37° C.
(§4) Aβ1-42 fibrillization and Aβ1-42 fibril disruption in the presence and absence of tanshinones were monitored by ThT fluorescence assay. 2 mM ThT store solution was prepared by adding 0.0328 g ThT powder into 50 mL DI water. 250 μL of the 2 mM ThT solution was further diluted into 50 mL Tris-buffer (pH=7.4) to reach a final concentration of 10 μM. 60 μL of 20 μM Aβ with or without tanshinone was put into 3 mL of 10 μM ThT-Tris solution. Fluorescence spectra were obtained using a LS-55 fluorescence spectrometer (Perkin Elmer Corp., Waltham, Mass.). All measurements were carried out in aqueous solution using a 1 cm×1 cm quartz cuvette. ThT fluorescence emission intensity of each sample was recorded between 460 and 510 nm with an excitation wavelength of 450 nm. Fluorescence intensity from solution without Aβ1-42 was subtracted from solution containing Aβ1-42. Each experiment was repeated in 3 independent samples and each sample was tested quadrupled.

In data set [3] the test system is SH-SY5Y cells. The data set can be described thus: Live/dead cell toxicity assay, tanshinone alone. It counts as cell-based.
Text: as §1, §2
Aβ oligomers were prepared by incubating a 1 mM Aβ-PBS solution at 37° C. for 24 h. Aβ oligomers with a molar ratio of Aβ:tanshinone of 1:0.2 were added to each well to reach a final concentration of 20 μM. The cells were then left for 24 hours before cell toxicity tests. A live/dead cytotoxicity assay, which determines live and dead cells with two probes by measuring intracellular esterase activity and plasma membrane integrity, was used to obtain cell viability/toxicity data. Cells were stained by adding 2 μM of Calcein AM (Life Technologies) to distinguish the presence of live cells with a fluorescence excitation/emission of 494/517 nm, while by adding 5 μM of Ethidium homodimer-1 (Life Technologies) to distinguish the presence of dead cells with a fluorescence excitation/emission of 528/617 nm. The cells were incubated for 15 minutes with the live/dead assay contents to activate the fluorescent dyes. A Zeiss Axiovert 40 CFL inverted microscope fitted with filters at 510 nm and 600 nm was used to obtain fluorescence images of the live and dead cells. Fluorescence readings at 494/517 nm and 528/617 nm were detected using a Synergry H1 microplate reader (BioTek, Winooski, Vt.). Cell death in each incubation condition was normalized using the equation of ΔF=(Fi/FAβ)*100%, where ΔF is the percentage of cell death in different incubation conditions compared with the death of cells co-incubate with Aβ. Fi corresponds to the dead/live fluorescence signal of cells (blank control), cells co-incubate with TS1, cells co-incubate with TS2, cells co-incubate with Aβ and TS1, cells co-incubate with Aβ and TS2, and cells co-incubate with Aβ, respectively. FAβ represents the dead/live fluorescence signal of cells co-incubate with Aβ. The fluorescence signals of blank dyes were calibrated first and then subtracted from the fluorescence signals of medium solution.

The target of data set [4] is T1, Aβ1-42. Description: AFM morphology of Aβ1-42 incubated with tanshinones. To be noted: Aβ:TS=1:1, within the first 4 hours. As to the method: as §3
The morphology change of Aβ fibrillization and disruption in the presence and absence of tanshinones was characterized by AFM. A 25 μL sample used in the Aβ1-42 ThT fluorescence assay was taken for AFM measurement at different time points to correlate Aβ morphology change with Aβ grow kinetics. […]

For data set [5], the target named is T2, Aβ1-42 fibrils (Homo sapiens, UniProt P05067).
T2 construct: Aβ1-42 peptide (≧95.5%) was all purchased from American Peptide Inc; purchased American Peptide Inc. (Sunnyvale, Calif.)
T2 sequence (P05067 672-713 limits assumed): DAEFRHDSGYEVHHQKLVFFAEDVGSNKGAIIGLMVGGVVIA
The data set can be described thus: Disruption assay of preformed Aβ fibrils (ThT fluorescence). It counts as biochemical. To be noted: 20 μM Aβ fibrils, 37° C.; for decrease in ThT fluorescence of preformed Aβ fibrils vs untreated Aβ control: Aβ:TS=1:1, 48 hour co-incubation; for ThT intensity of preformed Aβ fibrils decreased by: Aβ:TS=1:2, 48 hour co-incubation. As to the method: The alternative potential therapeutic strategy to treat AD (Alzheimer's Disease) is to reduce the amount of the existing amyloid plaques. A very few molecules have been reported to disaggregate Aβ amyloid. […] To determine the ability of Aβ fibril dissolution by tanshinone in vitro, we set up experiments in which tanshinone was incubated with preformed fibrils. 20 μM Aβ fibrils were first prepared by incubating Aβ monomers in solution for 48 hour, which is sufficient long enough for Aβ to grow into mature fibrils as evidenced through AFM images and ThT fluorescence (FIG. 2). Upon 48 hour incubation, Aβ fibril solution was then co-incubated with TS1 or TS2 with different molar ratios of Aβ:TS (1:1, 1:2, and 1:5) for another 48 hour at 37° C.
Aβ1-42 fibrils were prepared by incubating 20 μM Aβ1-42 monomers for 48 h, which is sufficient long enough to enable Aβ peptides to grow into mature fibrils at a saturate state. The fibril solution was then divided into aliquots for the disruption tests. […] All the disruption samples were incubated at 37° C.
as §4

T1 sequence (P05067 672-713 limits assumed): as above

As for `Cc1coc2c1C(=O)C(=O)c1c-2ccc2c(C)cccc12` [TS1, tanshinone I], in data set [1], the “protect cultured-cells from Aβ-induced toxicity by” value is given as about 57.5% and the “percentage of dead cells (normalized to Aβ alone = 100%)” value is listed as about 57.5%. In data set [1] (tanshinone 4 μM + Aβ 20 μM), the “less toxic than TS2 by (difference in dead cells)” value was found to be 13.8%. For the same molecule, the “ThT intensity relative to Aβ samples without inhibitors decreased by” value in data set [2] (Aβ:TS=1:1, 24 hour) is 78.2%. For the same molecule, the “ThT intensity relative to Aβ samples without inhibitors decreased by” value in data set [2] (Aβ:TS=1:1, 48 hour) is 65.8%. The “final ThT fluorescence intensity reduced by” value in data set [2] turned out to be 88.5%. Moreover, the “cell death (normalized to Aβ-treated cells = 100%)” value in data set [3] (4 μM TS alone, 24 hour, SH-SY5Y) is given as 9.3%. Further, the “cell death (normalized to Aβ-treated cells = 100%)” value in data set [3] (8 μM TS alone, 24 hour, SH-SY5Y) was 25.3%. In addition, in data set [3] (pure TS, 4 μM level, SH-SY5Y), the “signs of cell death by fluorescence microscopy” value was “no observable signs of cell death”. In addition, in data set [4], the “small spherical particles in AFM images” value was 1-3 nm. Further, in data set [5], the “decrease in ThT fluorescence of preformed Aβ fibrils vs untreated Aβ control” value is listed as about 0.8% and the “ThT intensity of preformed Aβ fibrils decreased by” value was about 30%.
`Cc1coc2c1C(=O)C(=O)c1c-2ccc2c1CCCC2(C)C` [TS2, tanshinone IIA]: in data set [1], the “protect cultured-cells from Aβ-induced toxicity by” value is about 71.3% and the “percentage of dead cells (normalized to Aβ alone = 100%)” value is about 71.3%. In addition, the “ThT intensity relative to Aβ samples without inhibitors decreased by” value in data set [2] (Aβ:TS=1:1, 24 hour) came to 44.8%. In addition, in data set [2] (Aβ:TS=1:1, 48 hour), the “ThT intensity relative to Aβ samples without inhibitors decreased by” value was 34.6%. In data set [2], the “final ThT fluorescence intensity reduced by” value is reported as 83.4%. In addition, the “signs of cell death by fluorescence microscopy” value in data set [3] was “no observable signs of cell death”. Also, the “cell death (normalized to Aβ-treated cells = 100%)” value in data set [3] (human, 24 h, 4 μM) is listed as 5.8%. In addition, in data set [3] (human, 24 h, 8 μM), the “cell death (normalized to Aβ-treated cells = 100%)” value is listed as 20.5%. In addition, the “small spherical particles in AFM images” value in data set [4] is reported as 1-6 nm. Also, in data set [5], the “decrease in ThT fluorescence of preformed Aβ fibrils vs untreated Aβ control” value was about 0.8% and the “ThT intensity of preformed Aβ fibrils decreased by” value was about 30%.
